Test [1] has as its target T1, AR-V7 (Homo sapiens, UniProt P10275).
T1 sequence (P10275 1-644 isoform P10275-3): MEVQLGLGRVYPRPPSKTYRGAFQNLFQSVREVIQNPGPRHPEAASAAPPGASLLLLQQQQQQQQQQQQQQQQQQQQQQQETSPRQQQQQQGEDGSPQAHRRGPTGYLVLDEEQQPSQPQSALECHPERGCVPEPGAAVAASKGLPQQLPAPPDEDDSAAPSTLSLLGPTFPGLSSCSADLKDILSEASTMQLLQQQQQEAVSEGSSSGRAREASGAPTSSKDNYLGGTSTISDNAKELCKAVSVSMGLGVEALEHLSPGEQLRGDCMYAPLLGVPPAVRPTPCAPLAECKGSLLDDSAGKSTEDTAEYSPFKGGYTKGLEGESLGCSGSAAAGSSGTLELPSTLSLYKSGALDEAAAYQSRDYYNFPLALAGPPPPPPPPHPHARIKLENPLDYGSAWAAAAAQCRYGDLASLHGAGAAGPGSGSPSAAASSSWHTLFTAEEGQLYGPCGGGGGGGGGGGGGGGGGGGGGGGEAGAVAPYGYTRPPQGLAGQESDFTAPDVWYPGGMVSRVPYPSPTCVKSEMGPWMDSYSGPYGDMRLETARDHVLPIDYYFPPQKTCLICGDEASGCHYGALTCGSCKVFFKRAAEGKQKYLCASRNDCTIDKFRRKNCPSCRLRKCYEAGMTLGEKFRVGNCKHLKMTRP
The test is described as follows: AR-V7 downregulation in 22RV1 cells (automated Western, Wes). As to conditions: read-out: AR-V7 Downregulation IC50; 22RV1, 24 h treatment.
Experimental: (§2) Total AR and AR-V7 protein levels were determined using automated Western blotting (Wes Simple Western Analysis, ProteinSimple, San Jose, CA, USA). WES analyses were performed following the WES user manual. Briefly, LNCaP95 and 22RV1 cells were plated in a 12-well plate at a density of 2.5 × 10^5 cells per well. […] Samples were mixed with a master mix (ProteinSimple, San Jose, CA, USA) to give a final concentration of 0.2 mg/mL total protein, 1 × sample buffer, 1 × fluorescent molecular weight markers, and 40 mM DTT. Samples were heated at 95 °C for 5 min followed by centrifugation. Samples, blocking solution, primary antibodies, horseradish peroxidase-conjugated secondary antibodies, chemiluminescent substrate, and separation and stacking matrices were loaded into designated wells in a 384 well plate. After plate loading, fully automated electrophoresis and immunodetection took place in the capillary system. Proteins were separated by molecular weight at 375 V for 25 min, and primary and secondary antibodies were incubated for 30 min. The AR (Santa Cruz, Santa Cruz, CA, USA), AR-V7 (Santa Cruz, Santa Cruz, CA, USA), and actin (Novus, cat #NB600-503) antibodies were diluted in a proprietary antibody diluent at a 1:50 dilution ratio. Chemiluminescence was captured by a charge-coupled device camera, and the digital image was analyzed using Compass software 6.2.0 (ProteinSimple). The amount of each protein, relative to total protein content, was calculated based on peak areas. Total AR and AR-V7 levels were normalized to actin.

Another test has as its target T2, AR-full length (AR-FL) (Homo sapiens, UniProt P10275, T878A).
T2 sequence (P10275 1-920 T878A): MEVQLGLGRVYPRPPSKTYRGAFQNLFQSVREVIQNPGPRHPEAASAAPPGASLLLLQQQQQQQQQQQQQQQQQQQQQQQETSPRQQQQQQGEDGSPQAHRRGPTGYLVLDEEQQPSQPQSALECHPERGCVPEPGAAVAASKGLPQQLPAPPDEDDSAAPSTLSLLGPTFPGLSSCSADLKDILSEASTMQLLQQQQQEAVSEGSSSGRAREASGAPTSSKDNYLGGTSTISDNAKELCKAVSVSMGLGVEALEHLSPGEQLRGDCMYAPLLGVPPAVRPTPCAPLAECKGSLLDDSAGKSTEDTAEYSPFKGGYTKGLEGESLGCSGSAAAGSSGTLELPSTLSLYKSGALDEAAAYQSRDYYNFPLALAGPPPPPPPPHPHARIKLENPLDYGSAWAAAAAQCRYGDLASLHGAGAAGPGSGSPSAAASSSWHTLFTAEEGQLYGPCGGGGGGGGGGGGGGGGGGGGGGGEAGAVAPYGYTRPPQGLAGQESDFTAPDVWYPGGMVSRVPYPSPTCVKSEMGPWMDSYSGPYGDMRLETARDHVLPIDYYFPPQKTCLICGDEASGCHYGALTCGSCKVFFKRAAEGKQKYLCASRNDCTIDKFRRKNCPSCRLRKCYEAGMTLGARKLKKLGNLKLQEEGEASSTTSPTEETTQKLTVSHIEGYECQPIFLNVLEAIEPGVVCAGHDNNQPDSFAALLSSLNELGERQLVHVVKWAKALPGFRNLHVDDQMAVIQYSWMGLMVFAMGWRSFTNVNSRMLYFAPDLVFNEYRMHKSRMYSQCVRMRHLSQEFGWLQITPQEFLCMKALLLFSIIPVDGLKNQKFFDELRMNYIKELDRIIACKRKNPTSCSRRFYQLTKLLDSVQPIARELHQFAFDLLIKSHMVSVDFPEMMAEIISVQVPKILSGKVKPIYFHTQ
The test can be described thus: AR downregulation in LNCaP95 cells (automated Western, Wes). As to conditions: for downregulating the AR-FL, in words: LNCaP95; for DC50: read-out: AR Downregulation IC50, LNCaP95, 24 h treatment.

Test [2] deals with T1, AR-V7. The test can be described thus: AR-V7 downregulation in LNCaP95 cells (automated Western, Wes). As to conditions: for downregulating the AR-V7, in words: LNCaP95; for DC50: read-out: AR-V7 Downregulation IC50, LNCaP95, 24 h treatment.
Experimental: as §2
Another test concerns 22RV1 cells. The test is described as follows: Antiproliferative assay (resazurin, 72 h) in 22RV1 cells. It is filed as cell-based. The following applies: for inhibition at 1 µM / IC50: Homo sapiens; for antiproliferative activity, in words: enzalutamide-resistant cell lines LNCaP95 and 22RV1, SAR statements. On the procedure: (§1) 22Rv1 cells were obtained from ATCC. LNCaP95 cells were provided by Dr. Yan Dong’s laboratory (Tulane University School of Medicine). LNCaP95 cells were maintained in an RPMI1640 medium with charcoal-stripped serum (CSS). 22Rv1 cells were maintained in an RPMI1640 medium with 10% FBS. Cells were seeded in 96-well plates (5 × 10^3 cells/well) containing a 50 μL growth medium for 24 h. After medium removal, a 100 μL fresh medium containing individual compounds at different concentrations was added to each well and incubated at 37 °C for 72 h. Then, 20 μL of resazurin was added for 2 h before recording fluorescence at 560 nm (excitation) and 590 nm (emission) using a Victor microtiter plate fluorometer (Perkin-Elmer, Waltham, MA, USA).
In general terms: Alamar Blue is a resazurin reagent that responds to reducing activity.

The subject of a further test is LNCaP95 cells. The test is described as follows: Antiproliferative assay (resazurin, 72 h) in LNCaP95 cells. It is filed as cell-based. Here is the method:
as §1

Setting [3] is: 22RV1, 1.0 μM, read-out: Inhibitory Rate 22RV1 @1.0 μM.
[4] abbreviates: antiproliferation, 22RV1, 72 h, mean of three independent experiments, read-out: IC50 (μM) 22RV1.
Where [5] appears, read: observed, −log IC50, 22RV1 antiproliferation, read-out: Obs pIC50 (converted).
Setting [6] is: LNCaP-95, antiproliferation, LNCaP95, 72 h, mean of three independent experiments, read-out: IC50 (μM) LNCaP95.

Experimental findings from publication PMC10222209 (Pharmaceuticals, 2023) are described below.

Structures are written as SMILES. Read-outs that look alike come from different tables or passages of the source.

Experimental for AR-full length (AR-FL): as §2

Regarding `O=C(Nc1ccc(C(F)(F)F)c(C(F)(F)F)c1)c1cc(Cl)ccc1O` [B1], the figures for the DC50 at AR-V7 [1], on AR-full length (AR-FL) and at AR-V7 [2] were 4280 ± 1360 nM, 463 ± 224 nM and 280 ± 117 nM, respectively. The “downregulating the AR-FL, in words” value on AR-full length (AR-FL) was “strong activity”. In addition, the “downregulating the AR-V7, in words” value on AR-V7 [2] is given as “strong activity”. For the same molecule, the inhibition at 1 µM in the test on 22RV1 cells (setting [3]) came to 59.2%. The IC50 with 22RV1 cells (setting [4]) is 0.258 ± 0.097 µM; in the test with 22RV1 cells (setting [5]), 0.258 µM; in the test on LNCaP95 cells (setting [6]), 0.239 ± 0.072 µM. Also, in the test with 22RV1 cells, the “antiproliferative activity, in words” value is given as “equivalent or improved anti-proliferation potency”.
`O=C(Nc1ccc(C(F)(F)F)c(C(F)(F)F)c1)c1cc(F)ccc1O` [B9]: the DC50 worked out at 2860 ± 950 nM at AR-V7 [1], 551 ± 173 nM at AR-full length (AR-FL) and 467 ± 204 nM on AR-V7 [2]. In addition, at AR-full length (AR-FL), the “downregulating the AR-FL, in words” value is on record as “strong activity”. Moreover, the “downregulating the AR-V7, in words” value at AR-V7 [2] is “strong activity”. The IC50 with 22RV1 cells (22Rv1, antiproliferation, approximate value, read-out: IC50 in 22RV1 (text)) was ~0.1 µM; with 22RV1 cells (setting [4]), 0.0997 ± 0.0221 µM; with 22RV1 cells (setting [5]), 0.0991 µM; in the test with LNCaP95 cells (setting [6]), 0.13 ± 0.033 µM; with LNCaP95 cells (LNCaP-95, antiproliferation, approximate value, read-out: IC50 in LNCaP95 (text)) it was ~0.1 µM. Also, in the test with 22RV1 cells (setting [3]), the inhibition at 1 µM was 84.3%. Besides, in the test with 22RV1 cells, the “antiproliferative activity, in words” value is “equivalent or improved anti-proliferation potency”.
In the case of `N#Cc1ccc(NC(=O)c2cc(Cl)ccc2O)cc1C(F)(F)F` [B3], the DC50 on AR-V7 [1] worked out at 354 ± 134 nM; on AR-full length (AR-FL) it was 781 ± 512 nM; at AR-V7 [2] it was 850 ± 246 nM. Besides, the “downregulating the AR-FL, in words” value on AR-full length (AR-FL) was “strong activity”. Moreover, the “downregulating the AR-V7, in words” value on AR-V7 [2] is “strong activity”. Also, the IC50 in the test on 22RV1 cells (22Rv1, 72 h, read-out: IC50 (μM) 22RV1) was 0.695 ± 0.246 µM; in the test on 22RV1 cells (22Rv1, read-out: Obs pIC50 (converted)), 0.695 µM; with LNCaP95 cells (LNCaP-95, 72 h, read-out: IC50 (μM) LNCaP95), 0.354 ± 0.066 µM. The inhibition at 1 µM with 22RV1 cells (22Rv1, read-out: Inhibitory Rate 22RV1 @1.0 μM) turned out to be 34.9%.
Consider `O=C(Nc1ccc(C(F)(F)F)c(C(F)(F)F)c1)c1cc(F)c(F)cc1O` [B14], for which the DC50 at AR-V7 [1] is > 10000 nM; at AR-full length (AR-FL) it was 498 ± 185 nM; at AR-V7 [2], 491 ± 156 nM. In addition, the “downregulating the AR-FL, in words” value on AR-full length (AR-FL) is “strong activity”. Further, the “downregulating the AR-V7, in words” value at AR-V7 [2] was “strong activity”. The inhibition at 1 µM with 22RV1 cells (setting [3]) came out at 47.3%. Moreover, the IC50 is 0.382 ± 0.078 µM in the test with 22RV1 cells (setting [4]), 0.382 µM with 22RV1 cells (setting [5]) and 0.199 ± 0.055 µM with LNCaP95 cells (setting [6]).
Take `O=C(Nc1ccc([N+](=O)[O-])cc1Cl)c1cc(Cl)ccc1O` [Niclosamide, reference compound]: the inhibition at 1 µM with 22RV1 cells (setting [3]) was found to be 55.8%. In addition, the IC50 in the test with 22RV1 cells (setting [4]) was 0.284 ± 0.059 µM; with 22RV1 cells (setting [5]), 0.284 µM; in the test on LNCaP95 cells (setting [6]) it was 0.372 ± 0.074 µM.
Take `O=C(Nc1ccc(C(F)(F)F)c(C(F)(F)F)c1)c1cc(Br)ccc1O` [B4]: the inhibition at 1 µM with 22RV1 cells (setting [3]) is 53.1%. In addition, the IC50 with 22RV1 cells (setting [4]) is 0.307 ± 0.059 µM; in the test with 22RV1 cells (setting [5]) it was 0.307 µM; in the test with LNCaP95 cells (setting [6]) it was 0.213 ± 0.042 µM.
For `O=C(Nc1ccc([N+](=O)[O-])c(F)c1)c1ccc(Cl)cc1O` [A5], in that order: 44.2%, 0.924 ± 0.414 µM, 0.925 µM and 0.937 ± 0.351 µM.
For `COc1cc([N+](=O)[O-])ccc1NC(=O)c1cc(Cl)ccc1O` [A13], in that order: 57.3%, 0.158 ± 0.044 µM, 0.158 µM and 0.444 ± 0.119 µM.
The matching figures for `O=C(Nc1ccc(C(F)(F)F)cc1Cl)c1cc(F)ccc1O` [B5]: 59.2%, 0.375 ± 0.063 µM, 0.375 µM and 0.384 ± 0.088 µM.
